Reference: patent publication US10894807B2 (Siemens Medical Solutions USA, Inc., priority 2011, dated 2021)

Target: human PSMA (Homo sapiens (Human), UniProt Q04609)
Experiment: Enzymatic assay for in vitro evaluation of PSMA inhibitors (fluorescent assay of PSMA activity, NAAG substrate, OPA detection of glutamate)
Format: biochemical
Details: for PSMA Blkg % (10 μM): compound at 10 μM

Chain of human PSMA (Q04609 whole entry): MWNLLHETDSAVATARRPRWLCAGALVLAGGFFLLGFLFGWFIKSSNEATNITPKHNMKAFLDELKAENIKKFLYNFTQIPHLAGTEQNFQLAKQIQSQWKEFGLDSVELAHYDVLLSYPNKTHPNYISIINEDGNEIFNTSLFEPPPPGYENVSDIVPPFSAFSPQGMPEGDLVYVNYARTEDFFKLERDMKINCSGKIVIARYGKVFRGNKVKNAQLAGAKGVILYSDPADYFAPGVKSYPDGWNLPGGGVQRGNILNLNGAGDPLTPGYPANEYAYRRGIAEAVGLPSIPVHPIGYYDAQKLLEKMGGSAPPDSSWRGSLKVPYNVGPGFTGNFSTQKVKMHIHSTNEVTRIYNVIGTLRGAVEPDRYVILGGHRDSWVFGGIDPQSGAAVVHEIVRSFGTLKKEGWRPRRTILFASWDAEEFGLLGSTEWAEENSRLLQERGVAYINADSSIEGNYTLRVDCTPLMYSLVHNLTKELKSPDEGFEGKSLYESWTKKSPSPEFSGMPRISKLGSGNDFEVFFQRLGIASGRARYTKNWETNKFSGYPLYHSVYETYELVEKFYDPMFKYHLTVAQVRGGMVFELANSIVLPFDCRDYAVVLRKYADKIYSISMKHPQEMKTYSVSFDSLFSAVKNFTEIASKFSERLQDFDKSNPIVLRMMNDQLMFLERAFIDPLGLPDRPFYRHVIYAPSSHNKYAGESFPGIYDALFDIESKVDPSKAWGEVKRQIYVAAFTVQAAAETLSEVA

Compound | PSMA Blkg % (1.0 μM) [%] | PSMA Blkg % (10 μM) [%] | Ki [nM]
O=C(O)CC[C@@H](NC(=O)N[C@@H](CCCCNC(=O)c1cc(C(=O)NCCCC[C@H](NC(=O)N[C@H](CCC(=O)O)C(=O)O)C(=O)O)cc(-n2cc(CCCF)nn2)c1)C(=O)O)C(=O)O [P297, (2R,2′R)-2,2′-(((((1S,1′S)-((5-(4-(3-Fluoropropyl)-1H-1,2,3-triazol-1-yl)isophthaloyl)-bis(azanediyl))bis(1-carboxypentane-5,1-diyl))bis(azanediyl))bis(carbonyl))-bis(azanediyl))dipentanedioic Acid] | 31 |  | 
O=C(O)CC[C@H](NC(=O)C[C@@H](NC(=O)CCCNC(=O)c1cc(C(=O)NCCCC(=O)N[C@H](CC(=O)N[C@@H](CCC(=O)O)C(=O)O)C(=O)O)cc([N+](=O)[O-])c1)C(=O)O)C(=O)O [P298, (2S,2′S)-2,2′-(((3R,3′R)-3,3′-((4,4′-((5-Nitroisophthaloyl)bis(azanediyl))bis(butanoyl))-bis(azanediyl))bis(3-carboxypropanoyl))bis(azanediyl))dipentanedioic Acid] | 88 |  | 
(9S,13S)-9-Carboxy-13-((1-(2-fluoroethyl)-1H-1,2,3-triazol-4-yl)methyl)-3,11-dioxo-1-phenyl-2-oxa-4,10,12-triazatetradecan-14-oic Acid [P187] |  | 77 | 
(S)-2-(3-((S)-1-Carboxy-5-(4-(2-fluoroethoxy)benzamido)pentyl)ureido)pentanedioic Acid [P160] |  | 88 | 219
